Laboratory results as given in ChEMBL document CHEMBL1201862, “PubChem BioAssay data set” (2004).
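1) Cells in 96-well plates. 2) Compound, 48 h, 5 concentrations. 3) Linear interpolation between surrounding doses. 4) Unreached endpoint = highest concentration. At the GI50, growth is halved.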 Calls of active or inactive are those of the source. Rule as the data show it: active = GI50 up to about 1.1 µM and inactive = higher.

Assays:
Test in all cases: NCI anticancer screen, dose series, 48 h
MCF7 = test system: MCF7
SNB-75 = test system: SNB-75
MDA-MB-231 = test system: MDA-MB-231
UACC-257 = test system: UACC-257
SK-MEL-5 = test system: SK-MEL-5
HCC 2998 = test system: HCC 2998
EKVX = test system: EKVX
BT-549 = test system: BT-549
RXF 393 = test system: RXF 393
LOX IMVI = test system: LOX IMVI
ACHN = test system: ACHN
Hs-578T = test system: Hs-578T
SK-MEL-2 = test system: SK-MEL-2
DU-145 = test system: DU-145
NCI-H226 = test system: NCI-H226
CCRF-CEM = test system: CCRF-CEM
SN12C = test system: SN12C
HL-60 = test system: HL-60
IGROV-1 = test system: IGROV-1
OVCAR-3 = test system: OVCAR-3

| SMILES | GI50 (MCF7) | GI50 (SNB-75) | GI50 (MDA-MB-231) | GI50 (UACC-257) | GI50 (SK-MEL-5) | GI50 (HCC 2998) | GI50 (EKVX) | GI50 (BT-549) | GI50 (RXF 393) | GI50 (LOX IMVI) | GI50 (ACHN) | GI50 (Hs-578T) | GI50 (SK-MEL-2) | GI50 (DU-145) | GI50 (NCI-H226) | GI50 (CCRF-CEM) | GI50 (SN12C) | GI50 (HL-60) | GI50 (IGROV-1) | GI50 (OVCAR-3) |
| --- | --- | --- | --- | --- | --- | --- | --- | --- | --- | --- | --- | --- | --- | --- | --- | --- | --- | --- | --- | --- |
| Nc1nc(N)c2nn(-c3ccc(C(=O)O)cc3)nc2n1 | > 100 µM (inactive) | > 100 µM (inactive) | > 100 µM (inactive) | > 100 µM (inactive) | > 100 µM (inactive) | > 100 µM (inactive) | > 100 µM (inactive) | > 100 µM (inactive) | > 100 µM (inactive) | > 100 µM (inactive) | > 100 µM (inactive) | > 100 µM (inactive) | > 100 µM (inactive) | > 100 µM (inactive) | > 100 µM (inactive) | > 100 µM (inactive) | > 100 µM (inactive) | 72.1 µM (inactive) | > 100 µM (inactive) | > 100 µM (inactive) |
| O=[N+]([O-])c1cccc2nc3ccccc3c(NCCCCNc3c4ccccc4nc4cccc([N+](=O)[O-])c34)c12 | 0.0216 µM (active) | 0.0859 µM (active) | 0.0178 µM (active) | 0.146 µM (active) | 0.0365 µM (active) | 0.0254 µM (active) | 0.104 µM (active) | 0.242 µM (active) | 0.0188 µM (active) | 0.0621 µM (active) | 0.017 µM (active) | 0.191 µM (active) | 0.141 µM (active) | 0.0232 µM (active) | 0.144 µM (active) | < 0.016 µM (active) | 0.0414 µM (active) | < 0.01 µM (active) | 0.118 µM (active) | 0.0395 µM (active) |
| COC1(CC[C@H](C)COC2OC(CO)C(O)C(O)C2O)O[C@H]2C[C@H]3[C@@H]4CC=C5C[C@@H](OC6OC(CO)C(O)C(OC7OC(CO)C(O)C(O)C7O)C6OC6OC(C)C(O)C(O)C6O)CC[C@]5(C)[C@H]4CC[C@]3(C)[C@H]2[C@@H]1C (stereo not given in full) | 9.2 µM (inactive) | 2.55 µM (inactive) | 3.7 µM (inactive) | 5.73 µM (inactive) | 5.27 µM (inactive) | 4.86 µM (inactive) | 15.9 µM (inactive) | 7.6 µM (inactive) | 4.24 µM (inactive) | 2.68 µM (inactive) | 13.3 µM (inactive) | 11 µM (inactive) | 8.77 µM (inactive) | 2 µM (inactive) | 6.49 µM (inactive) | 3.17 µM (inactive) | 5.41 µM (inactive) | 3.12 µM (inactive) | 3.73 µM (inactive) | 16.7 µM (inactive) |
| Cc1cc(=O)n2nc(CCl)sc2n1 | 13.8 µM (inactive) | 10.8 µM (inactive) | 20.7 µM (inactive) | 10.2 µM (inactive) | 10.6 µM (inactive) | 16 µM (inactive) | 17.4 µM (inactive) | 3.58 µM (inactive) | 5.94 µM (inactive) | 4.19 µM (inactive) | 14.3 µM (inactive) | 17 µM (inactive) | 10.5 µM (inactive) | 18.1 µM (inactive) | 13.9 µM (inactive) | 6.62 µM (inactive) | 14.3 µM (inactive) | 17.3 µM (inactive) | 14.9 µM (inactive) | 14.9 µM (inactive) |
| FC(F)(F)C1(C(F)(F)F)O[Si]2(OC(C(F)(F)F)(C(F)(F)F)c3ccccc32)c2ccccc21 | 14.4 µM (inactive) | 14.6 µM (inactive) | 8.24 µM (inactive) | 18 µM (inactive) | 15.5 µM (inactive) | 13.7 µM (inactive) | 15 µM (inactive) | 14.5 µM (inactive) | 13.6 µM (inactive) | 9.44 µM (inactive) | 12 µM (inactive) | 11.9 µM (inactive) | 7.66 µM (inactive) | 15.4 µM (inactive) | 4.53 µM (inactive) | 10.5 µM (inactive) | 9.02 µM (inactive) | 13.6 µM (inactive) | 16.3 µM (inactive) | 16.5 µM (inactive) |
| Cn1c2ccccc2n2c3ccccc3c3nnc(N)c-3c12 | 19.2 µM (inactive) | 1.95 µM (inactive) | 55 µM (inactive) | 51.1 µM (inactive) | 28.9 µM (inactive) | 41.2 µM (inactive) | > 100 µM (inactive) | 2.25 µM (inactive) | 22.7 µM (inactive) | 57.7 µM (inactive) | 91.2 µM (inactive) | 1.69 µM (inactive) | 22.6 µM (inactive) | 33.7 µM (inactive) | > 93.1 µM (inactive) | 37.3 µM (inactive) | 0.757 µM (active) | > 100 µM (inactive) | > 100 µM (inactive) | 28.2 µM (inactive) |
| Cc1cccc(C)c1NC(=O)Nc1ccc(S(N)(=O)=O)cc1 | > 100 µM (inactive) | > 100 µM (inactive) | > 100 µM (inactive) | > 100 µM (inactive) | > 100 µM (inactive) | > 100 µM (inactive) | > 100 µM (inactive) | > 100 µM (inactive) | > 100 µM (inactive) | > 100 µM (inactive) | > 100 µM (inactive) | > 100 µM (inactive) | > 100 µM (inactive) | > 100 µM (inactive) | > 100 µM (inactive) | > 100 µM (inactive) | > 100 µM (inactive) | > 100 µM (inactive) | > 100 µM (inactive) | > 100 µM (inactive) |
| O=C1c2c(ccc3c2CCC3)CC1Cc1ccc2c(c1)CCC2 (stereo not given) | 22.6 µM (inactive) | 7.38 µM (inactive) | 10.3 µM (inactive) | 18.5 µM (inactive) | 12.5 µM (inactive) | 34.3 µM (inactive) | 28.1 µM (inactive) | 51.6 µM (inactive) | 25.7 µM (inactive) | 25.4 µM (inactive) | 36.1 µM (inactive) | 10 µM (inactive) | 27.2 µM (inactive) | 27.3 µM (inactive) | 28.2 µM (inactive) | 14.5 µM (inactive) | 23.4 µM (inactive) | 4.69 µM (inactive) | 28.6 µM (inactive) | 24.4 µM (inactive) |
| CCN(c1cccc(NC(=S)Nc2ccccc2N(CC)c2cc(-c3ccccc3)no2)c1)c1cc(-c2ccccc2)no1 | > 100 µM (inactive) | > 100 µM (inactive) | > 100 µM (inactive) | > 100 µM (inactive) | > 100 µM (inactive) | > 100 µM (inactive) | > 100 µM (inactive) | > 100 µM (inactive) | > 100 µM (inactive) | > 100 µM (inactive) | > 100 µM (inactive) | > 100 µM (inactive) | > 100 µM (inactive) | > 100 µM (inactive) | > 100 µM (inactive) | > 100 µM (inactive) | > 100 µM (inactive) | > 100 µM (inactive) | > 100 µM (inactive) | > 100 µM (inactive) |
| CC(=O)N1C(c2[nH]c3ccccc3c2Cc2ccccc2)CCN1c1ccccc1 (stereo not given) | 8.45 µM (inactive) | 5.83 µM (inactive) | > 10 µM (inactive) | > 10 µM (inactive) | > 10 µM (inactive) | 5.97 µM (inactive) | > 10 µM (inactive) | > 10 µM (inactive) | 4.16 µM (inactive) | > 10 µM (inactive) | 3.04 µM (inactive) | 9.31 µM (inactive) | > 10 µM (inactive) | > 10 µM (inactive) | > 10 µM (inactive) | 3.66 µM (inactive) | > 10 µM (inactive) | 5.42 µM (inactive) | > 10 µM (inactive) | > 10 µM (inactive) |
